These results are taken from patent US7018993B2, “Antiandrogenic agent” (Chugai Seiyaku Kabushiki Kaisha, priority 2000, dated 2006).

The structures appear in SMILES notation.

Series [1] concerns the target T1, human androgen receptor (Homo sapiens, UniProt P10275).
T1 construct: expressed in transfected cells; host or cells: HeLa cells
T1 sequence (P10275 1-920): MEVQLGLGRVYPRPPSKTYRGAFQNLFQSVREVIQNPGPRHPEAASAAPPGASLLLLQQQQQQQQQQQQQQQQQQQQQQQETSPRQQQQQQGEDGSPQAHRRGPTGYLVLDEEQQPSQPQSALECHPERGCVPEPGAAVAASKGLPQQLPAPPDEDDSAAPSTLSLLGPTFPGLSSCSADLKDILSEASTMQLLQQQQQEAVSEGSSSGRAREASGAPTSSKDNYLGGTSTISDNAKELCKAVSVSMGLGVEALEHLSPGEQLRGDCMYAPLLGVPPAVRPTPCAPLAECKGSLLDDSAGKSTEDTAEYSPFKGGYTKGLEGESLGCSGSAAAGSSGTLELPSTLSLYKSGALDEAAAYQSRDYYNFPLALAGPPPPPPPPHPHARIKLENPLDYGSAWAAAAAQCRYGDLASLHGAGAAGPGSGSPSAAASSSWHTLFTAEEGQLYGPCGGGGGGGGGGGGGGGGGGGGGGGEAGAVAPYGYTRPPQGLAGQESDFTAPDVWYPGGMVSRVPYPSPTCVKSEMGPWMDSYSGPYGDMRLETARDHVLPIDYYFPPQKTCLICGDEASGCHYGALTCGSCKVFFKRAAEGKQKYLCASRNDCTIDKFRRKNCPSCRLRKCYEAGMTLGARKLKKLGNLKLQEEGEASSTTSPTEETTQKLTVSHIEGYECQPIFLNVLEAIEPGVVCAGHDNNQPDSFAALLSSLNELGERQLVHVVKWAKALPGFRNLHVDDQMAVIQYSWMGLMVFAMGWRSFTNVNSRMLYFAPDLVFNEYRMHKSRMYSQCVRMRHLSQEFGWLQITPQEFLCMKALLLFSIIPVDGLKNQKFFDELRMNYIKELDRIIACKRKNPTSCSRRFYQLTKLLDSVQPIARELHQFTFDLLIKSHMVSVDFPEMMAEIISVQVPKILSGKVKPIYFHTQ
Kind of series: Androgen receptor reporter gene assay for antagonistic effects (inhibition of DHT-induced transcriptional activity, HeLa cells). It counts as cell-based. Here is the method:
Twenty-four hours before transfection, 1.0×10^5 HeLa cells are cultured in a 12-well microplate containing phenol red-free DMEM/5% DCC-FBS. […] To effect this assay, reference may be made to J. Biol. Chem., vol. 270, p.
(§1) Twenty-four hours before transfection, 1.0×10^5 HeLa cells are cultured in a 12-well microplate containing phenol red-free DMEM/5% DCC-FBS.
Background: A reporter such as luciferase makes a cellular process visible.

Another series has as its target androgen receptor (Homo sapiens, UniProt P10275). To be noted: 10 μmol/L; cited from earlier work.
For series [2], the target named is T1, human androgen receptor. Kind of series: Androgen receptor reporter gene assay for agonistic effects (MMTV-Luc, HeLa cells). Particulars: 10 μmol/L. It counts as cell-based. As to the method: Twenty-four hours before transfection, 1.0×10^5 HeLa cells (purchased from Dainippon Pharmaceutical Co., Ltd.) are cultured in a 12-well microplate containing phenol red-free Dulbecco's Modified Eagle Medium (phenol red-free DMEM) supplemented with charcoal-treated FBS (DCC-FBS; 5%). […] To effect this assay, reference may be made to J. Biol. Chem., vol. 270, p.
as §1

For series [3] the following is noted: prostate cancer patients undergoing treatment with flutamide; cited from earlier work.
The subject of the next series is prostate weight. To be noted: castrated rats, continuous administration for two weeks; cited from earlier work.

With `CN(C)C(=O)CCCOc1cc(O)cc(CCC[C@@H]2C[C@H]3CC(=O)CC[C@]3(C)[C@H]3CC[C@]4(C)[C@@H](O)CC[C@H]4[C@H]23)c1` [Compound from Example 3, 17β-Hydroxy-7α-(3-(3-hydroxy-5-(3-(N,N-dimethylaminocarbonyl)propoxy)phenyl)propyl)-5α-androstan-3-one], on human androgen receptor [1], the half-inhibitory concentration (IC50) stood at 392 nM.
Turning to `CC(C)(O)C(=O)Nc1ccc([N+](=O)[O-])c(C(F)(F)F)c1` [Hydroxyflutamide, hydroxyflutamide], the “transcriptional activity of androgen receptor” value on androgen receptor was “enhance the transcriptional activity”. Besides, at human androgen receptor [2], the agonistic effects entry is recorded as “observed to have agonistic effects”. Besides, in series [3], the blood hydroxyflutamide levels result is “several”. Moreover, the “Luciferase activity (Relative activity)” value on human androgen receptor [1] (1.0 μmol/L compound with 0.1 nmol/L DHT, 48 h, activity given by 0.1 nmol/L DHT set to 100) is 29.0 (<50.0).
Turning to `CC(=O)O[C@]1(C(C)=O)CC[C@H]2[C@@H]3C=C(Cl)C4=CC(=O)CC[C@]4(C)[C@H]3CC[C@@]21C` [chlormadinone acetate], the prostate weight entry with prostate weight is reported as “increase in their prostate weight”.
Consider `CC(=O)O[C@]1(C(C)=O)CC[C@H]2[C@@H]3C=C(Cl)C4=CC(=O)[C@@H]5C[C@@H]5[C@]4(C)[C@H]3CC[C@@]21C` [cyproterone acetate], for which the prostate weight result in the series on prostate weight is recorded as “increase in their prostate weight”.

Usually IC50 stands for the midpoint of a concentration-inhibition curve. Higher therefore signals a need for much substance.
